According to patent US20260242391A1 (priority 2023, published 2026):

Columns and labels:
in vitro = conditions: human
HL-60 = HL-60 differentiation potency; format: cell-based; conditions: Homo sapiens

Row | Structure (SMILES) | IC50 (in vitro) | EC50 (HL-60)
1 | C[C@H]1[C@H](Oc2ccc(C#CC(=O)O)cc2)O[C@@H]2O[C@@]3(C)CC[C@H]4[C@H](C)CC[C@@H]1[C@@]24OO3 [Compound 139, 3-(4-(((3R,5aS,6R,8aS, 9R,10R,12R, 12aR)-3,6,9-trimethyldeca-hydro-12H-3,12-epoxy[1,2]dioxepino[4,3-i]isochromen-10-yl)oxy)phenyl) propiolic acid] | 3 µM | 0.0309 µM
2 | C[C@H]1[C@@H](OC(C)(C)[C@H]2CC[C@@H](C(=O)O)CC2)O[C@@H]2O[C@@]3(C)CC[C@H]4[C@H](C)CC[C@@H]1[C@@]24OO3 [Compound 131, (1R,4s)-4-(2-(((3R,5aS,6R,8aS, 9R,10S,12R, 12aR)-3,6,9-trimethyldeca-hydro-12H-3,12-epoxy[1,2]dioxepino[4,3-i]isochromen-10-yl)oxy)propan-2-yl)cyclohexane-1-carboxylic acid] | 16.5 µM | 0.159 µM
3 | C[C@H]1[C@H](OCCCc2ccc(C(=O)O)cc2)O[C@@H]2O[C@@]3(C)CC[C@H]4[C@H](C)CC[C@@H]1[C@@]24OO3 [Compound 21, 4-(3-(((3R,5aS,6R,8aS, 9R,10R,12R, 12aR)-3,6,9-trimethyldeca-hydro-12H-3,12-epoxy[1,2]dioxepino[4,3-i]isochromen-10-yl)oxy)propyl) benzoic acid] | > 20 µM | 0.123 µM
4 | C[C@@H]1CC[C@H]2[C@@H](C)C(OCc3ccc(C(=O)O)cc3F)O[C@@H]3O[C@@]4(C)CC[C@@H]1[C@]32OO4 (stereo in doubt) [Compound 45, 3-fluoro-4-((((3R,5aS,6R,8aS, 9R,10S,12R, 12aR)-3,6,9-trimethyldeca-hydro-12H-3,12-epoxy[1,2]dioxepino[4,3-i]isochromen-10-yl)oxy)methyl) benzoic acid] | > 20 µM | 0.662 µM
5 | C[C@H]1[C@@H](OCc2ccc(C(=O)O)c(F)c2F)O[C@@H]2O[C@@]3(C)CC[C@H]4[C@H](C)CC[C@@H]1[C@@]24OO3 [Compound 31, 2,3-difluoro-4-((((3R,5aS,6R, 8aS,9R,10S,12R, 12aR)-3,6,9-trimethyldeca-hydro-12H-3,12-epoxy[1,2]dioxepino[4,3-i]isochromen-10-yl)oxy)methyl) benzoic acid] | > 20 µM | 0.324 µM
6 | C[C@H]1[C@@H](Nc2cccc(F)c2)O[C@@H]2O[C@@]3(C)CC[C@H]4[C@H](C)CC[C@@H]1[C@@]24OO3 [Compound 56, (3R,5aS,6R,8aS, 9R,10S,12R, 12aR)-N-(3-fluorophenyl)-3,6,9-trimethyldeca-hydro-12H-3,12-epoxy[1,2] dioxepino[4,3-i] isochromen-10-amine] | 11 µM | 8.19 µM
7 | C[C@H]1[C@@H](OC[C@H]2CC[C@@H](C(=O)NC3CC3)CC2)O[C@@H]2O[C@@]3(C)CC[C@H]4[C@H](C)CC[C@@H]1[C@@]24OO3 [Compound 143, (1R,4s)-N-cyclopropyl-4-((((3R,5aS,6R,8aS, 9R,10S,12R, 12aR)-3,6,9-trimethyldeca-hydro-12H-3,12-epoxy[1,2]dioxepino[4,3-i]isochromen-10-yl)oxy)methyl) cyclohexane-1-carboxamide] | 1 µM | 0.0726 µM
8 | C[C@H]1[C@@H](OC[C@]2(F)CC[C@H](C(=O)O)CC2)O[C@@H]2O[C@@]3(C)CC[C@H]4[C@H](C)CC[C@@H]1[C@@]24OO3 [Compound 140, (1S,4r)-4-fluoro-4-((((3R,5aS,6R,8aS, 9R,10S,12R, 12aR)-3,6,9-trimethyldeca-hydro-12H-3,12-epoxy[1,2]dioxepino[4,3-i]isochromen-10-yl)oxy)methyl) cyclohexane-1-carboxylic acid] | 19 µM | 0.314 µM
9 | C[C@H]1[C@@H](OCc2ccc(C(=O)O)c(C(F)(F)F)c2)O[C@@H]2O[C@@]3(C)CC[C@H]4[C@H](C)CC[C@@H]1[C@@]24OO3 [Compound 155, 2-(trifluoromethyl)-4-((((3R,5aS,6R, 8aS,9R,10S,12R, 12aR)-3,6,9-trimethyldeca-hydro-12H-3,12-epoxy[1,2]dioxepino[4,3-i]isochromen-10-yl)oxy)methyl) benzoic acid] | > 20 µM | 0.175 µM
10 | C[C@H]1[C@H](OCc2ccc(B(O)O)cc2)O[C@@H]2O[C@@]3(C)CC[C@H]4[C@H](C)CC[C@@H]1[C@@]24OO3 [Compound 176, (4-((((3R,5aS,6R,8aS, 9R,10R,12R, 12aR)-3,6,9-trimethyldeca-hydro-12H-3,12-epoxy[1,2]dioxepino[4,3-i]isochromen-10-yl)oxy)methyl)phenyl)boronic acid] | 0.4 µM | 0.206 µM
11 | C[C@H]1[C@H](OCc2cc(C(=O)O)ccc2Cl)O[C@@H]2O[C@@]3(C)CC[C@H]4[C@H](C)CC[C@@H]1[C@@]24OO3 [Compound 168, 4-chloro-3-((((3R,5aS,6R,8aS, 9R,10R,12R, 12aR)-3,6,9-trimethyldeca-hydro-12H-3,12-epoxy[1,2]dioxepino[4,3-i]isochromen-10-yl)oxy)methyl) benzoic acid] | 6.5 µM | 0.0453 µM
12 | C[C@H]1[C@@H](Oc2ccc(CC(=O)O)c(F)c2)O[C@@H]2O[C@@]3(C)CC[C@H]4[C@H](C)CC[C@@H]1[C@@]24OO3 [Compound 26, 2-(2-fluoro-4-(((3R,5aS,6R, 8aS,9R,10S,12R, 12aR)-3,6,9-trimethyldeca-hydro-12H-3,12-epoxy[1,2]dioxepino[4,3-i]isochromen-10-yl)oxy)phenyl) acetic acid] | > 20 µM | 0.225 µM
13 | C[C@H]1[C@H](Oc2ccc(C(=O)C(=O)O)cc2)O[C@@H]2O[C@@]3(C)CC[C@H]4[C@H](C)CC[C@@H]1[C@@]24OO3 [Compound 129, 2-oxo-2-(4-(((3R,5aS,6R,8aS, 9R,10R,12R, 12aR)-3,6,9-trimethyldeca-hydro-12H-3,12-epoxy[1,2]dioxepino[4,3-i]isochromen-10-yl)oxy)phenyl) acetic acid] | 10.5 µM | 3.38 µM
14 | COC(=O)[C@@H]1CCN(CC[C@H]2O[C@@H]3O[C@@]4(C)CC[C@H]5[C@H](C)CC[C@@H]([C@H]2C)[C@@]35OO4)C1 [Compound 70, methyl (R)-1-(2-((3R,5aS,6R,8aS, 9R,10R,12R, 12aR)-3,6,9-trimethyldeca-hydro-12H-3,12-epoxy[1,2]dioxepino[4,3-i]isochromen-10-yl)ethyl) pyrrolidine-3-carboxylate] | > 20 µM | > 20 µM
15 | CNS(=O)(=O)CCN[C@@H]1O[C@@H]2O[C@@]3(C)CC[C@H]4[C@H](C)CC[C@@H]([C@H]1C)[C@@]24OO3 [Compound 97, N-methyl-2-(((3R,5aS,6R,8aS, 9R,10R,12R, 12aR)-3,6,9-trimethyldeca-hydro-12H-3,12-epoxy[1,2]dioxepino[4,3-i]isochromen-10-yl)amino)ethane-1-sulfonamide] | 2.08 µM | 2.34 µM
16 | C[C@H]1[C@H](OCC(=O)N2C[C@H](F)C[C@H]2C(=O)O)O[C@@H]2O[C@@]3(C)CC[C@H]4[C@H](C)CC[C@@H]1[C@@]24OO3 [Compound 159, (2S,4R)-4-fluoro-1-(2-(((3R,5aS,6R,8aS, 9R,10R,12R, 12aR)-3,6,9-trimethyldeca-hydro-12H-3,12-epoxy[1,2]dioxepino[4,3-i]isochromen-10-yl)oxy)acetyl) pyrrolidine-2-carboxylic acid] | > 20 µM | > 20 µM
17 | C[C@H]1[C@@H](O[C@H]2CC[C@@H](CC(=O)O)C2)O[C@@H]2O[C@@]3(C)CC[C@H]4[C@H](C)CC[C@@H]1[C@@]24OO3 [Compound 130, 2-((1R,3S)-3-(((3R,5aS,6R,8aS, 9R,10S,12R, 12aR)-3,6,9-trimethyldeca-hydro-12H-3,12-epoxy[1,2]dioxepino[4,3-i]isochromen-10-yl)oxy)cyclo-pentyl)acetic acid] | > 20 µM | 0.241 µM
18 | C[C@H]1[C@H](NCCC(N)=O)O[C@@H]2O[C@@]3(C)CC[C@H]4[C@H](C)CC[C@@H]1[C@@]24OO3 [Compound 96, 3-(((3R,5aS,6R,8aS, 9R,10R,12R, 12aR)-3,6,9-trimethyldeca-hydro-12H-3,12-epoxy[1,2]dioxepino[4,3-i]isochromen-10-yl)amino) propanamide] | 1.98 µM | 1.7 µM
19 | C[C@H]1[C@H](OCc2ccc3c(c2)OC(F)(F)O3)O[C@@H]2O[C@@]3(C)CC[C@H]4[C@H](C)CC[C@@H]1[C@@]24OO3 [Compound 6, (3R,5aS,6R,8aS, 9R,10R,12R, 12aR)-10-((2,2-difluorobenzo [d][1,3]dioxol-5-yl)methoxy)-3,6,9-trimethyldeca-hydro-12H-3,12-epoxy[1,2] dioxepino[4,3-i] isochromene] | 0.05 µM | 0.0532 µM
20 | C[C@H]1[C@H](N(C)CCS(C)(=O)=O)O[C@@H]2O[C@@]3(C)CC[C@H]4[C@H](C)CC[C@@H]1[C@@]24OO3 [Compound 17, (3R,5aS,6R,8aS, 9R,10R,12R, 12aR)-N,3,6,9-tetramethyl-N-(2-(methylsulfonyl)ethyl)decahydro-12H-3,12-epoxy [1,2]dioxepino [4,3-i] isochromen-10-amine] | 0.243 µM | 0.0955 µM
21 | C[C@H]1[C@@H](OCC23CC(C(=O)O)(C2)C3)O[C@@H]2O[C@@]3(C)CC[C@H]4[C@H](C)CC[C@@H]1[C@@]24OO3 [Compound 55, 3-((((3R,5aS,6R,8aS, 9R,10S,12R, 12aR)-3,6,9-trimethyldeca-hydro-12H-3,12-epoxy[1,2]dioxepino[4,3-i]isochromen-10-yl)oxy)methyl) bicyclo[1.1.1] pentane-1-carboxylic acid] | > 20 µM | 7.4 µM
22 | C[C@H]1[C@H](OCCS(C)(=O)=O)O[C@@H]2O[C@@]3(C)CC[C@H]4[C@H](C)CC[C@@H]1[C@@]24OO3 [Compound 53, (3R,5aS,6R,8aS, 9R,10R,12R, 12aR)-3,6,9-trimethyl-10-(2-(methylsulfonyl)ethoxy)deca-hydro-12H-3,12-epoxy[1,2] dioxepino[4,3-i] isochromene] | > 20 µM | 2.73 µM
23 | C[C@H]1[C@@H](Oc2ccc(C3CC(C(=O)O)C3)cc2)O[C@@H]2O[C@@]3(C)CC[C@H]4[C@H](C)CC[C@@H]1[C@@]24OO3 (stereo partly drawn) [Compound 175, 3-(4-(((3R,5aS,6R,8aS, 9R,10S,12R, 12aR)-3,6,9-trimethyldeca-hydro-12H-3,12-epoxy[1,2]dioxepino[4,3-i]isochromen-10-yl)oxy)phenyl) cyclobutane-1-carboxylic acid] | 1.5 µM | 0.0581 µM
